The values below come from US20110014294A1, “STIMULATION OF OCULAR RETROBULBAR BLOOD FLOW USING OCULAR IRRITANTS” (PHARMALIGHT INC., priority 2008, published 2011).

One series deals with eye. The series is described as follows: Discomfort and irritation of animals after benzalkonium chloride compositions (Example 2). It counts as in vivo.
The test system of another series is retrobulbar blood flow. As to the kind of experiment: Effect of benzalkonium chloride compositions on retrobulbar blood flow (Example 2). It counts as in vivo. The following applies: benzalkonium chloride (0.01%, 0.05, 0.1%, 0.2% in isotonic PBS pH 7.4), sufficient amount, as a mist; animals. How it is done: The effect of compositions including benzalkonium chloride administered in accordance with the teachings herein is performed substantially as described in Example 1. Specifically, four isotonic PBS compositions having pH of 7.4 are prepared having 0.01%, 0.05, 0.1% and 0.2% benzalkonium chloride, respectively, as an ocular irritant.
The compositions are administered to animals and the effect on retrobulbar blood flow is determined, substantially as described above.

benzalkonium chloride: the Discomfort and irritation result was “little or no substantial discomfort and irritation” in the series with eye (benzalkonium chloride composition as a mist); “cause discomfort and irritation” with eye (benzalkonium chloride composition as drops). Moreover, the “Effect on retinal blood flow” value in the series on retrobulbar blood flow is listed as “substantial increase in retinal blood flow”.
